Measured values taken from ChEMBL document CHEMBL6074649, “An insight into recent developments in imidazole based heterocyclic compounds as anticancer agents: Synthesis, SARs, and mechanism of actions” (Eur J Med Chem, 2024).
In brackets after ≈: the same amount, converted by molar mass.

Tests used:
MDA-MB-231 = assay: Antiproliferative activity against human MDA-MB-231 cells assessed as reduction in cell growth by MTT assay; format: functional, cell-based
L02 = assay: Antiproliferative activity against human LO2 cells assessed as reduction in cell growth by MTT assay; format: functional, cell-based
[1] = Antiproliferative activity against human HepG2 cells assessed as reduction in cell growth by MTT assay; format: toxicity, cell-based
[2] = Antiproliferative activity against human MCF-10A cells assessed as reduction in cell growth by MTT assay; format: toxicity, cell-based
Leukemia cell = assay: Growth inhibition of human Leukemia cell; format: functional
A549 [3] = assay: Antiproliferative activity against human A549 cells assessed as reduction in cell viability incubated for 24 hrs by MTT assay; format: functional, cell-based; conditions: A549, 24 h
AGS = assay: Antiproliferative activity against human AGS cells assessed as reduction in cell viability incubated for 24 hrs by MTT assay; format: functional, cell-based
[4] = Antiproliferative activity against human MRC5 cells assessed as reduction in cell viability incubated for 24 hrs by MTT assay; format: toxicity, cell-based
MCF7 [5] = assay: Anticancer activity against human MCF7 cells at 1.9 uM relative to control; format: functional
MCF7 [6] = assay: Anticancer activity against human MCF7 cells at 15.6 uM relative to control; format: functional
MCF7 [7] = assay: Anticancer activity against human MCF7 cells at 62.5 uM relative to control; format: functional
MCF7 [8] = assay: Anticancer activity against human MCF7 cells at 1.5 uM relative to control; format: functional
MCF7 [9] = assay: Anticancer activity against human MCF7 cells at 3.9 uM relative to control; format: functional
MCF7 [10] = assay: Anticancer activity against human MCF7 cells at 500 uM relative to control; format: functional
MCF7 [11] = assay: Anticancer activity against human MCF7 cells at 125 uM relative to control; format: functional
MCF7 [12] = assay: Anticancer activity against human MCF7 cells at 31.25 uM relative to control; format: functional
MCF7 [13] = assay: Anticancer activity against human MCF7 cells at 7.8 uM relative to control; format: functional
[14] = Growth inhibition of human Non-small cell lung cancer cell line; format: functional
CNS carcinoma cell = assay: Growth inhibition of human CNS carcinoma cell; format: functional
[15] = Growth inhibition of human Colon cancer cell line; format: functional
[16] = Growth inhibition of human Melanoma cell; format: functional
HepG2 [17] = assay: Cytotoxicity against human HepG2 cells assessed as reduction in cell growth incubated for 24 hrs by SRB assay; format: functional, cell-based; conditions: HepG2, 24 h
MCF7 [18] = assay: Cytotoxicity against human MCF7 cells assessed as reduction in cell growth incubated for 24 hrs by SRB assay; format: functional, cell-based; conditions: MCF7, 24 h
[19] = Anticancer activity against HEK293 cells assessed as reduction in cell viability incubated for 48 hrs by MTT assay; format: toxicity, cell-based; conditions: human
HeLa [20] = assay: Anticancer activity against human HeLa cells assessed as reduction in cell viability incubated for 48 hrs by MTT assay; format: functional, cell-based
A549 [21] = assay: Anticancer activity against human A549 cells assessed as reduction in cell viability incubated for 48 hrs by MTT assay; format: functional, cell-based; conditions: A549, 48 h
IMR-32 = assay: Anticancer activity against human IMR-32 cells assessed as reduction in cell viability incubated for 48 hrs by MTT assay; format: functional, cell-based; conditions: IMR-32, 48 h
MCF7 [22] = assay: Cytotoxicity against human MCF7 cells assessed as reduction in cell growth measured for 24 hrs by MTT assay; format: functional, cell-based; conditions: MCF7, 24 h
HepG2 [23] = assay: Cytotoxicity against human HepG2 cells assessed as reduction in cell growth incubated for 24 hrs by MTT assay; format: functional, cell-based; conditions: HepG2, 24 h
Caco-2 = assay: Cytotoxicity against human Caco-2 cells assessed as reduction in cell growth measured for 24 hrs by MTT assay; format: functional, cell-based; conditions: Caco-2, 24 h
A549 [24] = assay: Cytotoxicity against human A549 cells assessed as reduction in cell viability by MTT assay; format: functional, cell-based
COLO 205 = assay: Cytotoxicity against human COLO 205 cells assessed as reduction in cell viability by MTT assay; format: functional, cell-based
MCF7 [25] = assay: Cytotoxicity against human MCF7 cells assessed as reduction in cell viability by MTT assay; format: functional, cell-based
A2780 = assay: Cytotoxicity against human A2780 cells assessed as reduction in cell viability by MTT assay; format: functional, cell-based
A549 [26] = assay: Antiproliferative activity against human A549 cells assessed as reduction in cell growth incubated for 24 hrs by MTT assay; format: functional, cell-based; conditions: A549, 24 h
HepG2 [27] = assay: Antiproliferative activity against human HepG2 cells assessed as reduction in cell growth incubated for 24 hrs by MTT assay; format: functional, cell-based; conditions: HepG2, 24 h
[28] = Antiproliferative activity against human MCF7/MX cells assessed as reduction in cell growth incubated for 24 hrs by MTT assay; format: functional, cell-based
MCF7 [29] = assay: Antiproliferative activity against human MCF7 cells assessed as reduction in cell growth incubated for 24 hrs by MTT assay; format: functional, cell-based; conditions: MCF7, 24 h
NCI-H1299 = assay: Anticancer activity against human NCI-H1299 cells by MTT assay; format: functional, cell-based
[30] = Anticancer activity against human UKF-NB-3 cells by MTT assay; format: functional, cell-based
A549 [31] = assay: Anticancer activity against human A549 cells by MTT assay; format: functional, cell-based
K562 = assay: Antiproliferative activity against human K562 cells assessed as reduction in cell growth incubated for 48 hrs by MTT assay; format: functional, cell-based; conditions: K562, 48 h
HeLa [32] = assay: Antiproliferative activity against human HeLa cells assessed as reduction in cell growth incubated for 48 hrs by MTT assay; format: functional, cell-based

Question: With `Clc1ncccc1-c1nc(-c2ccccc2)c(-c2ccccc2)[nH]1` as the compound, how does the IC50 (MDA-MB-231) read?
Answer: 24.1 µM

Question: What about the IC50 (L02) of the same compound?
Answer: > 50 µM

Question: What about the IC50 [1] of the same compound?
Answer: 19.7 µM

Question: And the IC50 [2]?
Answer: > 50 µM

Question: With `Cc1ccc(Nn2c(SCC(=O)Nc3nc(-c4ccccc4)cs3)nc(C)c2C)cc1` as the compound, how does the GI50 (Leukemia cell) read?
Answer: 3.91 µM

Question: With `Cn1ccnc1/C=C/C(=O)c1ccc(F)cc1` as the compound, how does the IC50 (A549 [3]) read?
Answer: > 100 µM

Question: What about the IC50 (AGS) of the same compound?
Answer: 29.3 µM

Question: What about the IC50 at 24 h [4] of the same compound?
Answer: > 100 µM

Question: For `Cc1ccc(-c2nc(-c3ccccc3)c(-c3ccccc3)n2Cc2ccc(F)cc2)cc1`, which inhibition at 1.9 µM (MCF7 [5]) is on record?
Answer: 87%

Question: And the inhibition at 15.6 µM (MCF7 [6])?
Answer: 53%

Question: What about the inhibition at 62.5 µM (MCF7 [7]) of the same compound?
Answer: 38%

Question: And the inhibition at 1.5 µM (MCF7 [8])?
Answer: 90%

Question: What about the inhibition at 3.9 µM (MCF7 [9]) of the same compound?
Answer: 72%

Question: What about the inhibition at 500 µM (MCF7 [10]) of the same compound?
Answer: 15%

Question: What about the inhibition at 125 µM (MCF7 [11]) of the same compound?
Answer: 29%

Question: What about the inhibition at 31.25 µM (MCF7 [12]) of the same compound?
Answer: 47%

Question: What about the inhibition at 7.8 µM (MCF7 [13]) of the same compound?
Answer: 66%

Question: Which results are given for `COc1ccc(C(=O)/C=C/c2nc3ccccc3n2C)cc1`?
Answer: IC50 (A549 [3]): 68.1 µM; IC50 (AGS): 15.1 µM; IC50 at 24 h [4]: 45.9 µM

Question: Which results are given for `Oc1ccc(/C=C/c2cc(O)cc(O)c2)cc1` [RESVERATROL]?
Answer: GI50 [14]: 61.7 µM; GI50 (Leukemia cell): 15.9 µM; GI50 (CNS carcinoma cell): 70.8 µM; GI50 [15]: 56 µM; GI50 [16]: 64.6 µM

Question: With `Cc1nc(S)n(-c2ccccc2)c1-c1cc(-c2ccccc2O)c(C#N)c(=O)[nH]1` as the compound, how does the IC50 (HepG2 [17]) read?
Answer: 3 µg/mL (≈ 7.49 µM)

Question: And the IC50 (MCF7 [18])?
Answer: 2 µg/mL (≈ 4.99 µM)

Question: For `Fc1ccc(Cn2c(-c3ccc(Cl)cc3)nc(-c3ccccc3)c2-c2ccccc2)cc1`, which inhibition at 1.9 µM (MCF7 [5]) is on record?
Answer: 65%

Question: What about the inhibition at 15.6 µM (MCF7 [6]) of the same compound?
Answer: 55%

Question: What about the inhibition at 62.5 µM (MCF7 [7]) of the same compound?
Answer: 30%

Question: What about the inhibition at 1.5 µM (MCF7 [8]) of the same compound?
Answer: 88%

Question: And the inhibition at 3.9 µM (MCF7 [9])?
Answer: 78%

Question: And the inhibition at 500 µM (MCF7 [10])?
Answer: 12%

Question: And the inhibition at 125 µM (MCF7 [11])?
Answer: 24%

Question: And the inhibition at 31.25 µM (MCF7 [12])?
Answer: 39%

Question: And the inhibition at 7.8 µM (MCF7 [13])?
Answer: 63%

Question: For `O=[N+]([O-])c1ccccc1-c1nc(-c2ccc(Br)cc2)c(-c2ccc(Br)cc2)[nH]1`, which IC50 at 48 h [19] is on record?
Answer: 94.3 µM

Question: And the IC50 (HeLa [20])?
Answer: 13.6 µM

Question: What about the IC50 (A549 [21]) of the same compound?
Answer: 12.5 µM

Question: And the IC50 (IMR-32)?
Answer: 10.3 µM

Question: Which IC50 (MCF7 [22]) does the source give for `c1ccc(-c2nc(-c3ccc(OCc4c(COc5ccc(-c6nc(-c7ccccc7)c(-c7ccccc7)[nH]6)cc5)c(COc5ccc(-c6nc(-c7ccccc7)c(-c7ccccc7)[nH]6)cc5)c(COc5ccc(-c6nc(-c7ccccc7)c(-c7ccccc7)[nH]6)cc5)c(COc5ccc(-c6nc(-c7ccccc7)c(-c7ccccc7)[nH]6)cc5)c4COc4ccc(-c5nc(-c6ccccc6)c(-c6ccccc6)[nH]5)cc4)cc3)[nH]c2-c2ccccc2)cc1` here?
Answer: 35.4 µM

Question: What about the IC50 (HepG2 [23]) of the same compound?
Answer: 9.77 µM

Question: What about the IC50 (Caco-2) of the same compound?
Answer: 32.5 µM

Question: Which results are given for `COc1cc(OC)c(S(=O)(=O)n2ccnc2-c2ccon2)c(OC)c1`?
Answer: IC50 (A549 [24]): 0.29 µM; IC50 (COLO 205): 0.26 µM; IC50 (MCF7 [25]): 0.41 µM; IC50 (A2780): 1.22 µM

Question: What does the source list for `Brc1ccc(-c2nc(-c3c[nH]c4ccccc34)[nH]c2-c2ccc(Br)cc2)cc1`?
Answer: IC50 at 48 h [19]: 98.5 µM; IC50 (HeLa [20]): 11.2 µM; IC50 (A549 [21]): 9.52 µM; IC50 (IMR-32): 10.5 µM

Question: With `COc1ccc(C(=O)/C=C/c2nccn2C)cc1` as the compound, how does the IC50 (A549 [3]) read?
Answer: 61.7 µM

Question: And the IC50 (AGS)?
Answer: 20.9 µM

Question: What about the IC50 at 24 h [4] of the same compound?
Answer: 67.4 µM

Question: Which results are given for `COc1ccc(-c2nc(-c3ccccc3)c(-c3ccccc3)n2Cc2ccc(F)cc2)cc1`?
Answer: inhibition at 1.9 µM (MCF7 [5]): 88%; inhibition at 15.6 µM (MCF7 [6]): 65%; inhibition at 62.5 µM (MCF7 [7]): 41%; inhibition at 1.5 µM (MCF7 [8]): 82%; inhibition at 3.9 µM (MCF7 [9]): 79%; inhibition at 500 µM (MCF7 [10]): 13%; inhibition at 125 µM (MCF7 [11]): 39%; inhibition at 31.25 µM (MCF7 [12]): 54%; inhibition at 7.8 µM (MCF7 [13]): 73%

Question: With `CCSc1nc(/C=C/C(=O)c2cc(OC)c(OC)c(OC)c2)cn1Cc1ccccc1` as the compound, how does the IC50 (A549 [26]) read?
Answer: 7.05 µM

Question: What about the IC50 (HepG2 [27]) of the same compound?
Answer: 22 µM

Question: And the IC50 [28]?
Answer: 20.2 µM

Question: What about the IC50 (MCF7 [29]) of the same compound?
Answer: 9.88 µM

Question: What does the source list for `COc1ccc(C2=N[C@H](c3ccc(Cl)cc3)[C@H](c3ccc(Cl)cc3)N2C(=O)N2CCNC(=O)C2)c(OC(C)C)c1`?
Answer: IC50 (NCI-H1299): > 100 µg/mL; IC50 [30]: 5.2 µg/mL (≈ 8.94 µM); IC50 (A549 [31]): 11.1 µg/mL (≈ 19.1 µM)

Question: Which IC50 (COLO 205) does the source give for `COc1cc([C@@H]2c3cc4c(cc3[C@@H](O[C@@H]3O[C@@H]5CO[C@@H](C)O[C@H]5[C@H](O)[C@H]3O)[C@H]3COC(=O)[C@H]23)OCO4)cc(OC)c1O` [ETOPOSIDE] here?
Answer: 0.13 µM

Question: And the IC50 (MCF7 [25])?
Answer: 2.11 µM

Question: What about the IC50 (K562) of the same compound?
Answer: 6 µM

Question: And the IC50 (HeLa [32])?
Answer: 2.99 µM

Question: What about the IC50 (A2780) of the same compound?
Answer: 1.31 µM

Question: With `Cc1nc(S)n(-c2ccccc2)c1-c1cc(-c2ccc(-c3cc(-c4c(C)nc(S)n4-c4ccccc4)nc(N)c3C#N)cc2)c(C#N)c(N)n1` as the compound, how does the IC50 (HepG2 [17]) read?
Answer: 6 µg/mL (≈ 8.71 µM)

Question: What about the IC50 (MCF7 [18]) of the same compound?
Answer: 1.7 µg/mL (≈ 2.47 µM)
